Results as given in PubChem BioAssay (NCI).
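Tested at 5 concentrations; 48 h exposure; 96-well plates; endpoints linearly interpolated, else capped at highest concentration. GI50 is the concentration that inhibits growth by half. The concentration for full growth arrest is given as TGI.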

Key:
Assay in all cases: NCI anticancer screen, dose series, 48 h
786-0 renal = tested on: 786-0 renal
EKVX NSCLC = tested on: EKVX NSCLC
IGROV1 ovarian = tested on: IGROV1 ovarian
NCI-H460 lung = tested on: NCI-H460 lung
NCI-H522 lung = tested on: NCI-H522 lung
OVCAR-5 ovarian = tested on: OVCAR-5 ovarian
SF-268 CNS = tested on: SF-268 CNS
SF-539 CNS = tested on: SF-539 CNS
SNB-75 CNS = tested on: SNB-75 CNS
MOLT-4 leukemia = tested on: MOLT-4 leukemia

| Compound | TGI (786-0 renal) [µM] | TGI (EKVX NSCLC) [µM] | TGI (IGROV1 ovarian) [µM] | TGI (NCI-H460 lung) [µM] | TGI (NCI-H522 lung) [µM] | TGI (OVCAR-5 ovarian) [µM] | TGI (SF-268 CNS) [µM] | TGI (SF-539 CNS) [µM] | TGI (SNB-75 CNS) [µM] | TGI (MOLT-4 leukemia) [µM] | GI50 (786-0 renal) [µM] | GI50 (IGROV1 ovarian) [µM] | GI50 (NCI-H460 lung) [µM] | GI50 (NCI-H522 lung) [µM] | GI50 (OVCAR-5 ovarian) [µM] | GI50 (SF-268 CNS) [µM] | GI50 (SF-539 CNS) [µM] | GI50 (SNB-75 CNS) [µM] | GI50 (MOLT-4 leukemia) [µM] | GI50 (EKVX NSCLC) [µM] |
| --- | --- | --- | --- | --- | --- | --- | --- | --- | --- | --- | --- | --- | --- | --- | --- | --- | --- | --- | --- | --- |
| O=C1C=C(N2CCN(CCOCCO)CC2)C(=O)c2c(O)ccc(O)c21 | 21.7 | 33.9 | 9.9 | 21.4 | 5.75 | 12.8 | 37.1 | 25.6 | 30.6 |  |  |  |  |  |  |  |  |  |  |  |
| O=CCCCC(Sc1ccccc1)Sc1ccccc1 | 46 | > 100 | 50.5 |  | > 100 |  | 43.3 |  | 35.9 | 38.9 |  |  |  |  |  |  |  |  |  |  |
| COc1cccc2c1cc1c3c(cc4c(c32)OCO4)C(=O)N1 | 33.3 |  | 34.4 | 20.4 | 8.96 | > 100 | 96.3 | 21.2 | 11.1 |  | 7.15 | 4.26 | 3.68 | 2.62 | 6.56 | 6.07 | 4.8 | 2.4 |  |  |
| O=C(Cc1ccccc1)NN1C(=O)/C(=C\c2ccccc2O)SC1=Nc1ccccc1 | > 100 | > 100 | > 100 | > 100 |  | > 100 | > 100 | > 100 | > 100 | > 100 |  |  |  |  |  |  |  |  |  |  |
| Cc1cc2nc(-c3c(F)cccc3Cl)n(Cc3c(F)cccc3Cl)c2cc1C | 31.3 |  | > 100 | 30.9 | 48.9 | 34.1 | 31.7 | 34.8 | > 100 | > 100 | 15.8 | 33 | 6.32 | 20.3 | 15.9 | 11 | 17.3 | 45.5 | 30.4 |  |
| CN=C(N)N/N=C(\C)c1ccc2c(c1)Cc1ccccc1-2 | 3.74 | 13.9 | 19.5 | 1.81 |  | 3.96 | 5.25 | 3.02 | 7.01 | 1.49 | 1.86 | 3.74 | 0.556 |  | 1.65 | 2.13 | 1.66 | 2 | 0.352 | 2.62 |
| NS(=O)(=O)c1ccc(NC(=O)c2cccc(NC3=C(Cl)C(=O)N(Cc4ccccc4)C3=O)c2)cc1 | > 100 | 38.8 | 19.2 | 25.6 | 30.9 |  | 32.4 | 26.7 | 45.3 | 7.99 | 21.5 | 4.78 | 10.5 | 12.1 |  | 11.7 | 11.3 | 19.4 | 2.09 | 17.6 |
| Cc1ccc(S(=NS(=O)(=O)c2ccc(C)cc2)c2ccc(C)cc2)cc1 | > 100 | > 100 |  | > 100 |  | > 100 | > 100 | > 100 |  |  |  |  |  |  |  |  |  |  |  |  |
| NNC(=O)C(O)C(O)C(=O)NN (stereo not drawn) | > 100 | > 100 | > 100 |  | > 100 | > 100 | > 100 |  | > 100 | > 100 |  |  |  |  |  |  |  |  |  |  |
| COc1ccc2c([nH]c3c(O)c(-c4c(C)cc5c([nH]c6c(CC=C(C)C)c(OC)ccc65)c4O)c(C)cc32)c1CC=C(C)C | > 100 |  | > 100 | > 100 | > 100 | > 100 | > 100 | > 100 | > 100 | > 100 |  |  |  |  |  |  |  |  |  |  |
| [CH3][Sn]1([CH3])[O]CC(COc2cc(Cl)c(Cl)cc2Cl)[O]1 (stereo not drawn) | > 100 | > 100 | > 100 | > 100 | 36.3 |  | > 100 | > 100 | 68.8 | > 100 | > 100 | 70.3 | > 100 | 16.8 |  | 74.9 | 24.7 | 23.1 | > 100 | 55.9 |
| CCCCCCCCCCCCCCCCOCC(O)CO (stereo not drawn) | 32.8 | 36.3 | 31.1 | 37.7 | 33.2 | 52.2 | 36 | 31.5 |  | 29.6 |  |  |  |  |  |  |  |  |  |  |
| COc1ccc(C2=Nc3c/c(=C\c4c(O)[nH]c5cc(Cl)ccc45)ccc3=N2)cc1 | 20.6 |  | 50.5 | 26.1 | 29.1 | 60 | 32.4 | 28 | 14.2 | 29.9 | 7.85 | 17.6 | 8.01 | 7.07 | 22 | 12.9 | 11.4 | 3.1 | 4.85 |  |
| O=C1C=Cc2ncccc2C1=O | 29.1 | 47.5 | > 58.3 | 38.2 | 29.7 | > 58 | > 59.2 | 40.5 | 49.8 |  |  |  |  |  |  |  |  |  |  |  |
| Nc1ccn(C2OC(C(OC3OC(CO)C(O)C(N)C3O)C(O)C(O)C(O)C(O)CO)C(N)C(O)C2O)c(=O)n1 (stereo not drawn) | > 100 | > 100 | > 100 | > 100 | 93.5 | > 100 | 68.6 | 78.6 |  | > 100 |  |  |  |  |  |  |  |  |  |  |
| Cc1ccc(/C=N/NS(=O)(=O)c2ccccc2)c(C)c1 | > 100 | > 100 | > 100 | > 100 |  | > 100 | > 100 | > 100 | > 100 | > 100 |  |  |  |  |  |  |  |  |  |  |
| CC(=O)OC(=O)O/C=C\CCl | > 100 |  | > 100 | > 100 | 33.1 |  | > 100 | > 100 | > 100 | > 100 |  |  |  |  |  |  |  |  |  |  |
| Cn1nc(-c2ccccc2)c(C(=O)/C=C/c2ccc(Cl)cc2)c(N2CCCC2)c1=O | 13.5 | 32.4 | 27.9 | 12.9 | 6.45 |  | 20.2 | 13.2 |  | 6.66 |  |  |  |  |  |  |  |  |  |  |
| C/C(CC(=O)Nc1cccc([N+](=O)[O-])c1)=N\NC(=O)CC#N | > 100 | > 100 | > 100 |  | > 100 | > 100 | > 100 | > 100 | > 100 | > 100 |  |  |  |  |  |  |  |  |  |  |
| CNC(c1ccncc1)C(NC)c1ccncc1 (stereo not drawn) | > 100 | > 100 | > 100 |  | > 100 | > 100 | > 100 |  | > 100 | > 100 |  |  |  |  |  |  |  |  |  |  |
